Experiments:
[1] = molecular target: T1, Voltage-dependent L-type calcium channel subunit alpha-1C (Homo sapiens, UniProt Q13936); assay: Antagonist activity at Cav1.2 (unknown origin) stably expressed in HEK293 cells at 10 uM assessed as inhibition of LTCC current by Whole cell patch clamp assay relative to control; format: cell-based; details: read-out: Activity
[2] = molecular target: T2, Voltage-gated L-type calcium channel (Homo sapiens, UniProt Q13936+Q13698+Q01668+O60840); assay: Antagonist activity at L-type calcium channel in human mesoangioblast-derived myotube assessed as reduction in KCL-mediated depolarization of cytosolic (Ca2+) increase at 10 uM incubated for 25 mins in presence of KCl by live-cell imaging based analysis
[3] = molecular target: T1, Voltage-dependent L-type calcium channel subunit alpha-1C; assay: Antagonist activity at Cav1.2 (unknown origin) stably expressed in HEK293 cells assessed as inhibition of LTCC current by Whole cell patch clamp assay; format: cell-based; details: for Activity: human, hek293
[4] = molecular target: T1, Voltage-dependent L-type calcium channel subunit alpha-1C; assay: Binding affinity to GFP-tagged Cav1.2alpha 1C (unknown orign) transfected with human HeLa cells assessed as increase in fluorescence intensity at 25 to 100 nM in presence of nifedipine by fluorescence based confocal microscopy analysis; format: cell-based; details: dose 25-100 nM
[5] = molecular target: T1, Voltage-dependent L-type calcium channel subunit alpha-1C; assay: Binding affinity to GFP-tagged Cav1.2alpha 1C (unknown orign) transfected with human HeLa cells assessed as increase in fluorescence intensity in cytoplasm at 25 to 100 nM in presence of nifedipine by fluorescence based confocal microscopy analysis; format: cell-based; details: dose 25-100 nM
[6] = molecular target: T2, Voltage-gated L-type calcium channel; assay: Binding affinity to LTCC in endogenously expressing human SH-SY5Y cells assessed as increase in fluorescence intensity at 50 to 100 nM in presence of nifedipine by fluorescence based confocal microscopy analysis; format: cell-based; details: dose 50-100 nM
[7] = molecular target: T2, Voltage-gated L-type calcium channel; assay: Antagonist activity at L-type calcium channel in Ca1520-loade human SH-SY5Y cells assessed as inhibition of KCL-mediated depolarization of cytosolic (Ca2+) increase incubated for 5 mins in presence of KCl by live-cell imaging based analysis
[8] = molecular target: T1, Voltage-dependent L-type calcium channel subunit alpha-1C; assay: Binding affinity to GFP-tagged Cav1.2alpha 1C (unknown orign) transfected with human HeLa cells assessed as increase in fluorescence intensity at 50 nM incubated for 5 mins by fluorescence based confocal microscopy analysis; format: cell-based; details: 0.05 µM

T1 sequence (Q13936 whole entry): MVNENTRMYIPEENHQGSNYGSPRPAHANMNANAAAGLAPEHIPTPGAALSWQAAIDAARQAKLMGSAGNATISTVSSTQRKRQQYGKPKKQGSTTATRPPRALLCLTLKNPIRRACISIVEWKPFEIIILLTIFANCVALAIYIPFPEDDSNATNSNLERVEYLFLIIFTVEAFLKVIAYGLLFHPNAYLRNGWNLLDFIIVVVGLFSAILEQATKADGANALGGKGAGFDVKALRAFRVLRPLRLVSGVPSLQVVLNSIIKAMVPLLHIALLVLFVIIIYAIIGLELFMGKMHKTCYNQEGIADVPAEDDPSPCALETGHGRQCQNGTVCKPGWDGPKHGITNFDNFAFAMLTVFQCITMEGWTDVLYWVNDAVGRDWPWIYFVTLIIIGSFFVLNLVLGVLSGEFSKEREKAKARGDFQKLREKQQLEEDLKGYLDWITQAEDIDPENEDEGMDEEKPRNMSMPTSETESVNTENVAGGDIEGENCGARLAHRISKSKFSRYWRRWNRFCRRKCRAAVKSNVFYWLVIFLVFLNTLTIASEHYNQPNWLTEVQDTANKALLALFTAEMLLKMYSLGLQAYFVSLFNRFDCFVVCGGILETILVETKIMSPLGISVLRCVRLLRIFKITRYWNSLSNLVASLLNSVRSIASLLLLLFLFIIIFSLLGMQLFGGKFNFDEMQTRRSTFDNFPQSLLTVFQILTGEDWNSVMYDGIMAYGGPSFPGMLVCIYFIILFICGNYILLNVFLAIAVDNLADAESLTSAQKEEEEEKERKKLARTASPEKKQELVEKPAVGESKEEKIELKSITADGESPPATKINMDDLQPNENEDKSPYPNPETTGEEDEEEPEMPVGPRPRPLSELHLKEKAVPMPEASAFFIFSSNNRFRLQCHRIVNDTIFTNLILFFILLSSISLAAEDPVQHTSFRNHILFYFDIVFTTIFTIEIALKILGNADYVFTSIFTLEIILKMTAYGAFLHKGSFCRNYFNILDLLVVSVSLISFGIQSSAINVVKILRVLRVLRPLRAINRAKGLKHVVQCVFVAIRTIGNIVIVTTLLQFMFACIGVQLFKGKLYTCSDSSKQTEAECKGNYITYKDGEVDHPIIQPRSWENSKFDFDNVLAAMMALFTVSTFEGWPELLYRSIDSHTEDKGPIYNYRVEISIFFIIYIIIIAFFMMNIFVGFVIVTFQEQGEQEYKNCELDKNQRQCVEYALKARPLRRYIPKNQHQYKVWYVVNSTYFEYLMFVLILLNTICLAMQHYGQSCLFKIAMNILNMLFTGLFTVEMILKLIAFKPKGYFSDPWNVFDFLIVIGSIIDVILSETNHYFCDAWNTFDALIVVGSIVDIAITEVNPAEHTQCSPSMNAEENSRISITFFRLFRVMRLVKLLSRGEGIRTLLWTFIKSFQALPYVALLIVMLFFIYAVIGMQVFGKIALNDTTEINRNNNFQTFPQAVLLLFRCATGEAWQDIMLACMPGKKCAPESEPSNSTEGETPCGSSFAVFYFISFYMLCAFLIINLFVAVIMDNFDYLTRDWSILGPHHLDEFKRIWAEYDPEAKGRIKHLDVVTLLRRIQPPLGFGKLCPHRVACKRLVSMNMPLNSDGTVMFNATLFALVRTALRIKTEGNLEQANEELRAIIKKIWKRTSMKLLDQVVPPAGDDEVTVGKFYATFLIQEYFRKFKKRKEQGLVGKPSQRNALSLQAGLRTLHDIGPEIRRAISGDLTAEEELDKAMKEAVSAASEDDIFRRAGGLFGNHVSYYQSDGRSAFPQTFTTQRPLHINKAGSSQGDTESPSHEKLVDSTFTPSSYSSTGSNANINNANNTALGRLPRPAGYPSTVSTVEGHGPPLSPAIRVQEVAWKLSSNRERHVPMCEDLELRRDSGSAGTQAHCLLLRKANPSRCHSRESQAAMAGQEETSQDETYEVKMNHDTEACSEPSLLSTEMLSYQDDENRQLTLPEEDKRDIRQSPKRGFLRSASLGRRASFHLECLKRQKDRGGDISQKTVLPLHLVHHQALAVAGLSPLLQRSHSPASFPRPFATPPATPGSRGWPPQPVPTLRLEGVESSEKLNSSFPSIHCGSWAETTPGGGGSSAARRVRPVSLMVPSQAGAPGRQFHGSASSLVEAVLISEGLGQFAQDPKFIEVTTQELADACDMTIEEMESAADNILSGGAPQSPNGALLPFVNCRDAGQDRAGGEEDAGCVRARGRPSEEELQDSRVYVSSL

Activity [2] | SMILES | inhibition at 10 µM [1] | IC50 [3] | also measured
Active | COC(=O)C1=C(C)NC(C)=C(C(=O)OCCOCCNC(=O)CCCCC[N+]2=C(/C=C/C=C/C=C3/N(C)c4ccccc4C3(C)C)C(C)(C)c3ccccc32)C1c1ccccc1/C=C/C(=O)OC(C)(C)C (stereo unspecified) | 97% | 1.07 µM | 
Active | COC(=O)C1=C(C)NC(C)=C(C(=O)OCCOCCOCCNC(=O)CCCCC[N+]2=C(/C=C/C=C/C=C3\N(C)c4ccccc4C3(C)C)C(C)(C)c3ccccc32)C1c1cccc(Cl)c1Cl (stereo unspecified) | 77% | 3.5 µM | 
Active | COC(=O)C1=C(C)NC(C)=C(C(=O)OCCCCCCNC(=O)CCCCC[N+]2=C(/C=C/C=C/C=C3/N(C)c4ccccc4C3(C)C)C(C)(C)c3ccccc32)C1c1ccccc1[N+](=O)[O-] (stereo unspecified) | 52% | 12.7 µM | 
Active | COC(=O)C1=C(C)NC(C)=C(C(=O)OCCCCCCCCNC(=O)CCCCC[N+]2=C(/C=C/C=C/C=C3/N(C)c4ccccc4C3(C)C)C(C)(C)c3ccccc32)C1c1ccccc1[N+](=O)[O-] (stereo unspecified) | 87% | 1.9 µM | 
 | COC(=O)C1=C(C)NC(C)=C(C(=O)OC)C1c1ccccc1[N+](=O)[O-] [NIFEDIPINE] | 102% |  | 
Active | COC(=O)C1=C(C)NC(C)=C(C(=O)OCCCCCCNC(=O)CCCCC[N+]2=C(/C=C/C=C/C=C3/N(C)c4ccccc4C3(C)C)C(C)(C)c3ccccc32)C1c1cccc(Cl)c1Cl (stereo unspecified) | 50% | 12.5 µM | 
Active | COC(=O)C1=C(C)NC(C)=C(C(=O)OCCOCCNC(=O)CCCCC[N+]2=C(/C=C/C=C/C=C3N(C)c4ccccc4C3(C)C)C(C)(C)c3ccccc32)[C@@H]1c1cccc(Cl)c1Cl | 70% | 6.53 µM | 
Active | COC(=O)C1=C(C)NC(C)=C(C(=O)OCCOCCNC(=O)CCCCC[N+]2=C(/C=C/C=C/C=C3\N(C)c4ccccc4C3(C)C)C(C)(C)c3ccccc32)[C@H]1c1cccc(Cl)c1Cl | 94% | 0.65 µM | Activity [4]: Not Active; Activity [5]: Not Active; Activity [6]: Not Active; IC50 [7]: 1.08 µM; Activity ([7]; human, 5 min, dose 0.1-10000 nM): Dose-Dependent Effect; Activity [8]: Active
Active | COC(=O)C1=C(C)NC(C)=C(C(=O)OCCOCCNC(=O)CCCCC[N+]2=C(/C=C/C=C/C=C3/N(C)c4ccccc4C3(C)C)C(C)(C)c3ccccc32)C1c1cccc(Cl)c1Cl (stereo unspecified) | 62% | 7.48 µM | 
Active | COC(=O)C1=C(C)NC(C)=C(C(=O)OCCNC(=O)CCCCC[N+]2=C(/C=C/C=C/C=C3/N(C)c4ccccc4C3(C)C)C(C)(C)c3ccccc32)C1c1cccc(Cl)c1Cl (stereo unspecified) | 72% | 4.25 µM | 
Active | COC(=O)C1=C(C)NC(C)=C(C(=O)OCCOCCNC(=O)CCCCC[N+]2=C(/C=C/C=C/C=C3/N(C)c4ccccc4C3(C)C)C(C)(C)c3ccccc32)C1c1ccccc1[N+](=O)[O-] (stereo unspecified) | 83% | 2.2 µM | 
Active | COC(=O)C1=C(C)NC(C)=C(C(=O)OCCCCCCCCNC(=O)CCCCC[N+]2=C(/C=C/C=C/C=C3/N(C)c4ccccc4C3(C)C)C(C)(C)c3ccccc32)C1c1cccc(Cl)c1Cl (stereo unspecified) | 46% |  | Activity [3]: Not Active

SMILES | Activity [2] | inhibition at 10 µM [1] | IC50 [3] | also measured
COC(=O)C1=C(C)NC(C)=C(C(=O)OCCOCCNC(=O)CCCCC[N+]2=C(/C=C/C=C/C=C3/N(C)c4ccccc4C3(C)C)C(C)(C)c3ccccc32)C1c1ccccc1OS(=O)(=O)F (stereo unspecified) | Active | 88% | 1.51 µM | 
COC(=O)C1=C(C)NC(C)=C(C(=O)OCCCCCCNC(=O)CCCCCNC(=O)Oc2ccc(/C=C/C3=[N+]4C(=Cc5ccc(-c6cccs6)n5[B-]4(F)F)C=C3)cc2)C1c1cccc(Cl)c1Cl (stereo unspecified) | Not Active | 24% |  | Activity [3]: Not Active
